Experimental data published in patent publication US20030162777A1, “Novel N-acylated heterocycles” (Recordati S.A., priority 2001, published 2003).

Target: T1, human 5HT1A-serotonergic receptor (Homo sapiens, UniProt P08908)
T1 construct: expressed in transfected cells; host or cells: HeLa (human cell line), stably transfected; cell membranes used
T1 sequence (P08908 1-422): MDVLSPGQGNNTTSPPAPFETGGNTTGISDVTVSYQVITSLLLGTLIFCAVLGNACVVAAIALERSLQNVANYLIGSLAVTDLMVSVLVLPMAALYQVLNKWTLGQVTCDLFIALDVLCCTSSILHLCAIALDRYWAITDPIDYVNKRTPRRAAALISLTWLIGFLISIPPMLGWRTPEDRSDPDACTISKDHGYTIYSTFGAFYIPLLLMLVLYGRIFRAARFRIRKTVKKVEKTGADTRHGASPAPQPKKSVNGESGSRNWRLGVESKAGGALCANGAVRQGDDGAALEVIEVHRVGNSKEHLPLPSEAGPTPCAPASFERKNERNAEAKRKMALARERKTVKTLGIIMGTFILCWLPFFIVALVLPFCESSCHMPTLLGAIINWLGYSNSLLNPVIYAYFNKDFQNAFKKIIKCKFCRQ
Assay: Radioligand binding to recombinant 5-HT1A receptors
Conditions: [3H]8-OH-DPAT 1 nM, membranes of HeLa cells with human 5-HT1A receptor; Ki from IC50 by Cheng & Prusoff; read-out: Binding affinity for 5HT1A receptors, Ki
Experimental: Genomic clone G-21 coding for the human 5HT1A-serotonergic receptor was stably transfected in a human cell line (HeLa). HeLa cells were grown as monolayers in Dulbecco's modified Eagle medium (DMEM), containing 10% foetal bovine serum, gentamicin ([…]) and 5% carbon dioxide, at 37° C. The cells were detached from the growth flask at 95% confluence by a cell scraper and were lysed in cold 5 mM Tris and 5 mM EDTA buffer (pH 7.4). The homogenates were centrifuged at 40000×g×20 minutes and the pellets were resuspended in a small volume of cold 5 mM Tris and 5 mM EDTA buffer (pH 7.4) and immediately frozen and stored at −70° C. until use. On the day of experiment, the cell membranes were resuspended in incubation buffer: 50 mM Tris HCl (pH 7.4), 2.5 mM MgCl2, […] (Fargin et al., Nature 335, 358-360, 1988). The membranes were incubated in a final volume of 1 ml for 30 minutes at 30° C. with 1 nM [^3H]8-OH-DPAT, in the absence or presence of the test compounds. Non-specific binding was determined in the presence of 10 μM 5-HT. Incubation was stopped by addition of cold Tris-HC 1 buffer and rapid filtration through a 0.2%-polyethyleneimine-pretreated Whatman-GF/B or Schleicher-&-Schuell-GF52 filter.
The affinity of the tested compounds was evaluated as inhibition of specific binding of the radioligand to 5-HT1A receptors (IC50) by using the non-linear curve-fitting program Allfit (De Lean et al., Am. J. Physiol. 235, E97-E102 (1978). The IC50 value was converted to an affinity constant (Ki) by the equation of Cheng & Prusoff (Cheng Y. C., Prusoff W. H., Biochem. Pharmacol. 22, 3099-3108 (1973)).

SMILES | Ki [nM]
O=C(C1CCCCC1)N1c2ccccc2CCC1CN1CCN(Cc2ccccc2Cl)CC1 (stereo not shown) [Example 35A34, 1-(2-Chlorobenzyl)-4-(1-cyclohexanecarbonyl-1,2,3,4-tetrahydroquinoline-2-ylmethyl)piperazine] | 12.3
COc1cccc(N2CCN(CC3CCc4ccccc4N3C(=O)C3CCCCC3)CC2)n1 (stereo not shown) [Example 35A35, 1-(1-Cyclohexanecarbonyl-1,2,3,4-tetrahydroquinoline-2-ylmethyl)-4-(6-methoxy-2-pyridinyl)piperazine] | 6.2
O=C(C1CCCCC1)N1c2ccccc2CCC1CN1CCN(Cc2cc(Cl)ccc2Cl)CC1 (stereo not shown) [Example 35A36, 1-(1-Cyclohexanecarbonyl-1,2,3,4-tetrahydroquinoline-2-ylmethyl)-4-(2,5-dichlorobenzyl)piperazine] | 2.4
O=C(N1CCCCC1)N1c2ccccc2CCC1CN1CCN(c2cccc3[nH]ccc23)CC1 (stereo not shown) [Example 36, 1-(4-Indolyl)-4-(1-piperidinocarbonyl-1,2,3,4-tetrahydroquinoline-2-ylmethyl)piperazine] | 15.6
COc1cc(F)ccc1N1CCN(CC2CCc3cc(C)ccc3N2C(=O)C2CCCCC2)CC1 (stereo not shown) [Example 53, 1-(1-Cyclohexanecarbonyl-6-methyl-1,2,3,4-tetrahydroquinoline-2-ylmethyl)-4-(4-fluoro-2-methoxyphenyl)piperazine] | 24.2
N#CNCCC(=O)N1c2ccccc2CCC1CN1CCN(c2cccc3[nH]ccc23)CC1 (stereo not shown) [Example 54, 1-[1-(3-Cyanominopropionyl)-1,2,3,4-tetrahydroquinoline-2-ylmethyl]-4-(4-indolyl)piperazine] | 51
COc1cc(F)ccc1N1CCN(CC2CCc3c(Cl)cccc3N2C(=O)C2CCCCC2)CC1 (stereo not shown) [Example 55, 1-(5-Chloro-1-cyclohexanecarbonyl-1,2,3,4-tetrahydroquinoline-2-ylmethyl)-4-(4-fluoro-2-methoxyphenyl)piperazine] | 2.4
COc1ccc(C(=O)N2c3cccc(Cl)c3CCC2CN2CCN(c3ccc(F)cc3OC)CC2)cc1 (stereo not shown) [Example 56, 1-[5-Chloro-1-(4-methoxybenzoyl)-1,2,3,4-tetrahydroquinoline-2-ylmethyl]-4-(4-fluoro-2-methoxyphenyl)piperazine] | 3.6
COc1cc(F)ccc1N1CCN(CC2CCc3ccc(Cl)cc3N2C(=O)C2CCCCC2)CC1 (stereo not shown) [Example 57, 1-(7-Chloro-1-cyclohexanecarbonyl-1,2,3,4-tetrahydroquinoline-2-ylmethyl)-4-(4-fluoro-2-methoxyphenyl)piperazine] | 2.3
COc1ccc(C(F)(F)F)cc1N1CCN(CC2CCc3ccccc3N2C(=O)C2CCCCC2)CC1 (stereo not shown) [Example 60A9, 1-(1-Cyclohexanecarbonyl-1,2,3,4-tetrahydroquinoline-2-ylmethyl)-4-(2-methoxy-5-trifluoromethylphenyl)piperazine] | 6.5
O=C(C1CCCCC1)N1c2ccccc2CCC1CN1CCN(C2CCCc3ccccc32)CC1 (stereo not shown) [Example 60A10, 1-(1-Cyclohexanecarbonyl-1,2,3,4-tetrahydroquinoline-2-ylmethyl)-4-[1-(1,2,3,4-tetrahydronaphthyl)]piperazine] | 31.6
O=C(C1CCCCC1)N1c2ccccc2CCC1CN1CCN(c2cc(Cl)cc3c2OCCO3)CC1 (stereo not shown) [Example 60A11, 1-(7-Chloro-2,3-dihydro-1,4-benzodioxin-5-yl)-4-(1-cyclohexanecarbonyl-1,2,3,4-tetrahydroquinoline-2-ylmethyl)piperazine] | 10.6
COc1cc(F)ccc1N1CCN(CC2CCc3cc(-c4ccc(C(C)=O)s4)ccc3N2C(=O)C2CCCCC2)CC1 (stereo not shown) [Example 63, 1-[6-(5-Acetyl-2-thienyl)-1-cyclohexanecarbonyl-1,2,3,4-tetrahydroquinoline-2-ylmethyl)-4-(4-fluoro-2-methoxyphenyl)piperazine] | 42.9
COc1cc(F)ccc1N1CCN(CC2CCc3cc(-c4c(C)noc4C)ccc3N2C(=O)C2CCCCC2)CC1 (stereo not shown) [Example 64, 1-[1-Cyclohexanecarbonyl-6-(3,5-dimethylisoxazol-4-yl)-1,2,3,4-tetrahydroquinoline-2-ylmethyl]-4-(4-fluoro-2-methoxyphenyl)piperazine] | 23.9
COc1cc(F)ccc1N1CCN(CC2CCc3cccc(C)c3N2C(=O)C2CCCCC2)CC1 (stereo not shown) [Example 67, 1-(1-Cyclohexanecarbonyl-8-methyl-1,2,3,4-tetrahydroquinoline-2-ylmethyl)-4-(4-fluoro-2-methoxyphenyl)piperazine] | 29.4

Continued, values first:

Ki [nM] | SMILES
20 | O=C(C1CCCCC1)N1c2ccccc2CCC1CN1CCN(c2ccc(Br)c3[nH]ccc23)CC1 (stereo not shown) [Example 35A32, 1-(7-Bromo-4-indolyl)-4-(1-cyclohexanecarbonyl-1,2,3,4-tetrahydroquinoline-2-ylmethyl)piperazine]
17.3 | O=C(C1CCCCC1)N1c2c(F)cccc2CCC1CN1CCN(c2cccc3[nH]ccc23)CC1 (stereo not shown) [Example 38, 1-(1-Cyclohexanecarbonyl-8-fluoro-1,2,3,4-tetrahydroquinoline-2-ylmethyl)-4-(4-indolyl)piperazine]
5 | Cn1ccc2c(N3CCN(C[C@H]4CCc5ccccc5N4C(=O)C4CCCCC4)CC3)cccc21 [Example 43, (R)-1-(1-Cyclohexanecarbonyl-1,2,3,4-tetrahydroquinoline-2-ylmethyl)-4-(1-methyl-4-indolyl)piperazine]
30 | O=C(C1CCC(O)CC1)N1c2ccccc2CCC1CN1CCN(c2cccc3[nH]ccc23)CC1 (stereo not shown) [Example 44, (Z)-1-[1-(4-Hydroxycyclohexanecarbonyl)-1,2,3,4-tetrahydroquinoline-2-ylmethyl]-4-(4-indolyl)piperazine]
11.2 | O=C(C1CCCCC1)N1c2cc(F)ccc2CCC1CN1CCN(c2cccc3[nH]ccc23)CC1 (stereo not shown) [Example 46, 1-(1-Cyclohexanecarbonyl-7-fluoro-1,2,3,4-tetrahydroquinoline-2-ylmethyl)-4-(4-indolyl)piperazine]
17.7 | O=C(C1CCCCC1)N1c2ccccc2CC1CN1CCN(c2cccc3[nH]ccc23)CC1 (stereo not shown) [Example 48, 1-(1-Cyclohexanecarbonyl-2,3-dihydroindole-2-ylmethyl)-4-(4-indolyl)piperazine]
41 | O=C(C1CCCCC1)N1c2ccc(O)cc2CCC1CN1CCN(c2cccc3[nH]ccc23)CC1 (stereo not shown) [Example 50, 1-(1-Cyclohexanecarbonyl-6-hydroxy-1,2,3,4-tetrahydroquinoline-2-ylmethyl)-4-(4-indolyl)piperazine]
8.1 | O=C(C1CCCCC1)N1c2ccccc2CCC1CN1CCN(c2cc(Cl)ccc2F)CC1 (stereo not shown) [Example 60A1, 1-(5-Chloro-2-fluorophenyl)-4-(1-cyclohexanecarbonyl-1,2,3,4-tetrahydroquinoline-2-ylmethyl)piperazine]
12.2 | O=C(C1CCCCC1)N1c2ccccc2CCC1CN1CCN(c2cccc3nonc23)CC1 (stereo not shown) [Example 60A8, 1-[4-(2,1,3-Benzoxadiazolyl)]-4-(1-cyclohexanecarbonyl-1,2,3,4-tetrahydroquinoline-2-ylmethyl)piperazine]
15.6 | COc1cc(Cl)ccc1N1CCN(CC2CCc3ccccc3N2C(=O)C2CCCCC2)CC1 (stereo not shown) [Example 62A2, 1-(4-Chloro-2-methoxyphenyl)-4-(1-cyclohexanecarbonyl-1,2,3,4-tetrahydroquinoline-2-ylmethyl)piperazine]
5.7 | CCOc1cc(Cl)ccc1N1CCN(CC2CCc3ccccc3N2C(=O)C2CCCCC2)CC1 (stereo not shown) [Example 62A3, 1-(4-Chloro-2-ethoxyphenyl)-4-(1-cyclohexanecarbonyl-1,2,3,4-tetrahydroquinoline-2-ylmethyl)piperazine]
31.2 | Cc1ccc(N2CCN(CC3CCc4ccccc4N3C(=O)C3CCCCC3)CC2)c2cc[nH]c12 (stereo not shown) [Example 62A5, 1-(1-Cyclohexanecarbonyl-1,2,3,4-tetrahydroquinoline-2-ylmethyl)-4-(7-methyl-4-indolyl)piperazine]
43.4 | CCn1ccc2c(N3CCN(CC4CCc5ccccc5N4C(=O)C4CCCCC4)CC3)cccc21 (stereo not shown) [Example 62A, 1-(1-Cyclohexanecarbonyl-1,2,3,4-tetrahydroquinoline-2-ylmethyl)-4-(1-ethyl-4-indolyl)piperazine]
